# Experimental data published in US20230000896A1, “ALDH3A2 INHIBITION AND FERROPTOSIS INDUCTION FOR CANCER THERAPY” (President and Fellows of Harvard College, priority 2019, published 2023).
# Residues, ends and D or L forms follow the SMILES beside them. *: point of attachment. Cbz = O=C(OCc1ccccc1)*; CH2F = FC*
# Assays:
# Aldh3a2 = test: Q-PCR validation of Aldh3a2 knockdown in L-GMPs; type: cell-based, mouse; settings: FIG. 2B
# Description: (§1) However, its functional role in normal and malignant hematopoiesis is unclear. […] Aldh3a2 knockdown in L-GMPs decreased the number of cells in a methylcellulose assay (FIG. 2C and FIG. 9A) that quantifies growth on a per cell basis.
# RNA was extracted from cells using the RNeasy Micro Kit (Qiagen) and RT-PCR was performed using the SuperScript™ IV One-Step RT-PCR System according to the manufacturer's instructions. Taqman probes were used to perform Q-PCR for murine and human Aldh3a2.
# L-GMPs = test: methylcellulose assay of shRNA-infected L-GMPs; type: cell-based, mouse; settings: compared to control shRNA, FIG. 2C
# Description: as §1
# (§2) Ten thousand N-GMPs or L-GMPs infected with lentiviruses expressing relevant shRNAs were added to 3 cc of methylcellulose (StemCell Technologies) plated per well of a 6 well plate. Number of cells were counted on day 7.
# [1] = system: MLL-AF9 leukemia (L-GMPs); test: survival of sublethally irradiated C57BL/6J mice transplanted with shRNA-expressing L-GMPs; type: in vivo, mouse; settings: ten thousand L-GMPs transplanted, vs control shRNA, FIG. 2D
# Description: To evaluate Aldh3a2 knockdown in vivo, ten thousand L-GMPs expressing Aldh3a2-sh-1, Aldh3a2-sh-2 or control shRNA were transplanted into sublethally irradiated C57BL/6J recipient mice and followed over time.
# N-GMPs = test: methylcellulose assay of shRNA-infected N-GMPs; type: cell-based, mouse; settings: compared to control shRNA, FIG. 3A
# Description: Then a constitutive knockout mouse model (KO) was utilized where Aldh3a2 enzyme activity was decreased to less than 50 percent of wild-type (WT) control mice (FIG. 3B). (This model consists of a deletion of exon 4 of the Aldh3a2 gene which completely destroys Aldh3a2 enzyme activity but assays of cell homogenates measure total fatty aldehyde oxidizing activity including aldehyde dehydrogenases other than Aldh3a2).
# as §2
# THP-1 cells = test: growth kinetics of ALDH3A2-depleted THP-1 cells treated with NAC; type: cell-based, human; settings: 10 mM NAC, FIG. 12D
# Description: In cells cultured in [1,2-^13C2]glucose, the oxPPP generates singly ^13C labeled (M1) intermediates, glycolysis generates doubly 13C labeled (M2) intermediates, and the M1/M2 ratio reflects the oxPPP flux relative to glycolysis (FIG. 12E). […] Cells lacking ALDH3A2 thus fail to increase antioxidant defense mechanisms to mitigate the increased oxidative stress and prevent lipid peroxidation.
# (§3) RSL3 (at 5 uM), 4-HNE (5 uM) and ZVAD (at 10 uM) was added to Lin-Kit- or Lin-Kit+ leukemic cells in RPMI containing 10 ng/ul of murine IL3, IL6 and SCF. Ferrostatin (10 uM) was added to bulk leukemic cells in RPMI containing 10 ng/ul of murine IL3, TPO and FLT3L. Number of cells were measured by Celltiter GloR 2.0 assay at days 0, 1 and 3. 10 mM of NAC was added to RPMI with 10 percent FBS and 1 percent P/S for relevant rescue experiments. Drugs were purchased from Sigma.
# [2] = system: Aldh3a2-control and mutant LSPCs; test: frequency of live Aldh3a2-control and mutant LSPCs after drug treatment; type: cell-based, mouse; settings: three days
# Description: The specific mechanism for the reduced number of leukemic cells upon Aldh3a2 deletion was next investigated.
# Lipid peroxidation has been linked to the induction of ferroptosis, a non-apoptotic, iron-dependent form of cell death. An increase in lysophospholipids, especially those lacking PUFA tails as was observed (FIG. 13E), is a hallmark of ferroptosis. In addition, the ability to rescue cell death by providing exogenous MUFAs, as was found (FIG. 12H), is another feature of ferroptotic cell death. To further confirm these findings cells were treated with ferrostatin, an inhibitor of iron-dependent oxidative damage.
# To further assess the relationship to ferroptosis, a key enzyme protecting cells from ferroptotic cell death, glutathione peroxidase 4 (Gpx4) was genetically and pharmacologically targeted. […] Recent findings have shown that activation of MUFAs by Acs13 can also promote resistance to ferroptosis. Acs13 expression was not different between Aldh3a2 control and mutant leukemic cells (FIG. 13F).
# as §3
# [3] = system: leukemic stem and progenitor cells (LSPCs); test: cellular ROS by flow cytometry in Aldh3a2-control and mutant LSPCs; type: cell-based, mouse; settings: FIG. 5C
# Description: (§4) Aldehyde dehydrogenases metabolize aldehydes to mitigate oxidative stress and prevent lipid peroxidation in the cell. […] Next, oxidative damage in AML cells lacking Aldh3a2 was examined. […] To further assess deficits in detoxification capacity, the effects of 4-hydroxynonenal (4-HNE) was studied next, a commonly investigated fatty aldehyde and a byproduct of arachidonic acid catabolism, on cellular ROS, lipid peroxidation and proliferation in Aldh3a2-deficient leukemia stem and progenitor cells. […] Lastly, normal granulocyte monocyte precursors (N-GMPs) were investigated. […] Spleens from Aldh3a2-Ctrl and Aldh3a2-mut mice were utilized to obtain single cell suspensions and were incubated with C11 Bodipy lipid peroxidation sensor (ThermoFisher Cat #C10445) or CellRox reagent (ThermoFisher Cat #C10491) for 30 minutes at […]. Cells were stained with biotinylated antibodies against lineage markers, SA-Pacific Orange conjugate (ThermoFisher) and APC Rat Anti-Mouse CD117 (BD Biosciences) and read on the LSRII flow cytometer. Lipid peroxidation and cellular ROS was assessed in Lineage-, c-Kit^+ and Lineage^−, c-Kit^hi populations. RSL3 (at 5 uM), 4-HNE (5 uM) and ZVAD (at 10 uM) was added to Lin-Kit- or Lin-Kit+ leukemic cells in RPMI containing 10 ng/ul of murine IL3, IL6 and SCF. […] Number of cells were measured by Celltiter GloR 2.0 assay at days 0, 1 and 3. […]
# [4] = system: leukemic stem and progenitor cells (LSPCs); test: lipid peroxidation by flow cytometry in Aldh3a2-control and mutant LSPCs; type: cell-based, mouse; settings: FIG. 5D
# Description: as §4
# [5] = system: leukemic stem and progenitor cells (LSPCs); test: growth kinetics of Aldh3a2-control and mutant LSPCs treated with 4HNE; type: cell-based, mouse; settings: 4-HNE 5 uM, FIG. 5E
# Description: Aldehyde dehydrogenases metabolize aldehydes to mitigate oxidative stress and prevent lipid peroxidation in the cell. […] Next, oxidative damage in AML cells lacking Aldh3a2 was examined. […] To further assess deficits in detoxification capacity, the effects of 4-hydroxynonenal (4-HNE) was studied next, a commonly investigated fatty aldehyde and a byproduct of arachidonic acid catabolism, on cellular ROS, lipid peroxidation and proliferation in Aldh3a2-deficient leukemia stem and progenitor cells. […] Lastly, normal granulocyte monocyte precursors (N-GMPs) were investigated. […] RSL3 (at 5 uM), 4-HNE (5 uM) and ZVAD (at 10 uM) was added to Lin-Kit- or Lin-Kit+ leukemic cells in RPMI containing 10 ng/ul of murine IL3, IL6 and SCF. Ferrostatin (10 uM) was added to bulk leukemic cells in RPMI containing 10 ng/ul of murine IL3, TPO and FLT3L. Number of cells were measured by Celltiter GloR 2.0 assay at days 0, 1 and 3. 10 mM of NAC was added to RPMI with 10 percent FBS and 1 percent P/S for relevant rescue experiments. Drugs were purchased from Sigma.
# [6] = system: Aldh3a2-control and mutant leukemic cells; test: fatty acid rescue experiments (viability by flow cytometry); type: cell-based, mouse; settings: FIG. 12H
# Description: By detoxifying fatty aldehydes, Aldh3a2 generates fatty acids that can be used for biosynthetic purposes (FIG. 12A). […] To further investigate the consequences of this depletion of 18-carbon fatty acids in Aldh3a2 knockout cells lipidomics analysis was performed on leukemic cells derived from conditional knockout mice (FIGS. 13A-13E). Several, but not all, phospholipid species containing 18-carbon fatty acid tails were decreased in mutant cells across lipid classes, including phosphatidylcholines, phosphatidylethanolamines, cardiolipins and phosphatidic acids (FIGS. 13A-13D).
# Cell viability was analyzed using Annexin V-APC (BioLegend) and 7-AAD (ThermoFisher Scientific) with Annexin V^−7-AAD^− cells considered as viable cells. Analysis was performed on A BD LSR II flow cytometer.
# Bulk GFP+ cells sorted from wildtype or mutant mice were plated in a 24 well plate at 50,000 cells per well. Oleic acid (Sigma), complexed to fatty acid-free bovine serum albumin, was added at concentrations of 62.5, 125 or 250 μM. Ethanol/albumin was used as control. 72 hours later cell viability was analyzed by flow cytometry.
molecule,measurement,setting,value
"Aldh3a2-sh-1: shRNA against mouse Aldh3a2, GCAGGAAATGCTGTGATTATA (SEQ ID NO: 1)",Aldh3a2 expression in L-GMPs,Aldh3a2,decreased Aldh3a2 expression in L-GMPs
same,number of L-GMPs in methylcellulose,L-GMPs,significantly decreases the number of L-GMPs in methylcellulose
same,survival of recipient mice,[1],survive significantly longer than control animals
same,number of N-GMPs in methylcellulose,N-GMPs,no difference in the number of N-GMPs
"CC(=O)N[C@@H](CS)C(=O)O [NAC, N-Acetyl-L-Cysteine]",rescue of ALDH3A2 depleted THP-1 cells,THP-1 cells,partial rescue in the population of cells with moderate (sh-A) but not severe (sh-B) ALDH3A2 depletion
CCOC(=O)c1ccc(NC2CCCCC2)c(N)c1 [Ferrostatin],cell death in Aldh3a2 mutant leukemia cells,"[2]; Ferrostatin 10 uM, FIG. 6H and 14B",completely prevented the cell death
"Aldh3a2-sh-2: shRNA against mouse Aldh3a2, CCTCTGGCTCTTTATGTATTT (SEQ ID NO: 2)",Aldh3a2 expression in L-GMPs,Aldh3a2,decreased Aldh3a2 expression in L-GMPs
same,number of L-GMPs in methylcellulose,L-GMPs,significantly decreases the number of L-GMPs in methylcellulose
same,survival of recipient mice,[1],survive significantly longer than control animals
COC(=O)c1ccc([C@@H]2c3[nH]c4ccccc4c3C[C@@H](C(=O)OC)N2C(=O)CCl)cc1 [RSL3],sensitivity of Aldh3a2 deficient Lin-cKit+ AML cells,"[2]; RSL3 5 uM, FIG. 6I and 14C",increased sensitivity
Vitamin E,total ROS,[3]; 4HNE plus vitamin E treatment,decreased total ROS in control cells but was unable to do so in mutant cells
same,lipid peroxidation,[4]; 4HNE plus vitamin E treatment,significantly decreased lipid peroxidation in both populations
CC(NC(=O)C(NC(=O)OCc1ccccc1)C(C)C)C(=O)NC(CC(=O)O)C(=O)CF (stereo not drawn) [Z-VAD] (Cbz-Val-Ala-Asp-CH2F; configuration not given here),rescue of cell death in Aldh3a2 deficient cells,"[2]; ZVAD 10 uM, Lin- cKit+ cells, FIG. 6F",did not rescue the cell death
"CCCCCC(O)/C=C/C=O (stereo not shown) [4-HNE, 4-hydroxynonenal]",cellular ROS,[3]; 4-HNE exposure for 24 hours,increased cellular ROS in mutant but not control cells
same,lipid peroxidation,[4]; 4-HNE exposure,increased levels of lipid peroxidation in mutant but not in control cells
same,"sensitivity to 4HNE, mutant versus control",[5],significantly greater in mutant than in control cells
same,cell growth,[5]; control and mutant cells,reduced cell growth
CCCCCCCC/C=C\CCCCCCCC(=O)O [oleic acid],rescue of the effects of Aldh3a2 depletion,"[6]; exogenous oleic acid (18:1), conditional mutant mice",rescued the effects of Aldh3a2 depletion
same,concentration of maximum rescue of cells from death,"[6]; three days culture, 62.5, 125 or 250 μM tested",125 µM
